Laboratory results taken from US12108719B2, “Methods for creating doubled haploid plants” (Monsanto Technology LLC, priority 2015, dated 2024).

Test system: diploid maize plant
Assay: Multibud induction, embryo axis method (Example 8)
Type: in vivo
Experimental: Seeds of a diploid maize plant were surface sterilized comprising immersion using standard methods of the art and then germinated in vitro in growth media. One of the resulting seedlings was dissected from its seed two days after germination (embryo axis method). The dissected axis was then subjected to a multibud induction treatment comprising transfer to fresh multibud induction media containing cytokinin in the form of 10 mg/L BAP. After seven days in the multibud bud induction media, the treated seedlings were transferred back to a hormone-free regeneration media. […] These multibuds were dissected from the mother plant and transferred to rooting media comprising IBA and IAA. After approximately one week, the multibud-derived plants were transplanted into 10 inch pots and allowed to grow in a greenhouse until it was clear that each autonomously-growing multibud-derived shoot had formed ears and tassels that nicked. Each ear was then pollinated from the tassel growing in the same pot and then all plants were allowed to grow in greenhouse conditions until seed set.

For `c1ccc(CNc2ncnc3nc[nH]c23)cc1` [BAP, 6-Benzylaminopurine], the multibud formation (10 mg/L BAP for seven days, observed after approximately twenty days) was “induced multibuds could be seen growing from the nodal regions of the stem” and the “seed borne by ears of multibud-derived plants” value (10 mg/L BAP multibud induction, self-pollinated multibud-derived plants) was “dozens of seed each”.
